Data on 8 compounds can be found in BindingDB's records for doi:10.1111/cbdd.12681 (Peking University, 2016).

Structures are written as SMILES.

The target of this assay is T1, Dihydrofolate reductase (Homo sapiens, UniProt P00374).
T1 sequence (P00374 whole entry): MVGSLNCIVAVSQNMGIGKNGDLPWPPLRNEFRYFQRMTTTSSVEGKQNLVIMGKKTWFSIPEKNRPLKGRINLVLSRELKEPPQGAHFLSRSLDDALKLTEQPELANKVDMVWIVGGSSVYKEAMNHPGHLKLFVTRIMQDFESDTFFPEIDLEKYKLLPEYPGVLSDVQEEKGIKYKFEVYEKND
Briefly: DHFR Inhibition Assay. As to conditions: pH 7.5. The method, then:
The recombinant human (rh) DHFR was purchased from Sigma-Aldrich (Shanghai, China). All rhDHFR enzymes were assayed spectrophotometrically in a solution containing 0.1 mM dihydrofolate, 0.3 mM NADPH and 100 mM KCl at pH 7.5 and 32 °C. The reaction was initiated with an amount of enzyme yielding a change in O.D. at 340 nm measured by microplate spectrophotometer.
In turn, `Nc1nc(N)c2c(n1)CCC(CCc1ccc(C(=O)N[C@@H](CCC(=O)O)C(=O)O)cc1)N2` (stereo partly drawn) [4-[2-(2,4-Diamino-5,6,7,8-tetrahydropyrido[3,2-d]pyrimidin-6-yl)ethyl]benzoyl-L-glutamic acid (17a)] yielded an IC50 of 40 nM. Compound `Nc1nc(N)c2c(n1)CCC(CCc1ccc(C(=O)N[C@@H](CCC(=O)O)C(=O)O)cc1)N2C=O` (stereo partly drawn) [4-[2-(2,4-Diamino-5-formyl-5,6,7,8-tetrahydropyrido[3,2-d]pyrimidin-6-yl)ethyl]benzoyl-L-glutamic acid (19a)] returned an IC50 of 41 nM. Then `C=CCN1c2c(O)nc(N)nc2CCC1CCc1ccc(C(=O)N[C@@H](CCC(=O)O)C(=O)O)cc1` (stereo partly drawn) [4-[2-(2-Amino-4-hydroxy-5-allyl-5,6,7,8-tetrahydropyrido[3,2-d]pyrimidin-6-yl)ethyl]benzoyl-L-glutamic acid (23a)], with 298 nM; and `Nc1nc(O)c2c(n1)CCC(CCc1ccc(C(=O)N[C@@H](CCC(=O)O)C(=O)O)cc1)N2` (stereo partly drawn) [4-[2-(2-Diamino-4-hydroxy-5,6,7,8-tetrahydropyrido[3,2-d]pyrimidin-6-yl)ethyl]benzoyl-L-glutamic acid (18a)], with 59 nM. Then `Nc1nc(O)c2c(n1)CCC(CCc1ccc(C(=O)N[C@@H](CCC(=O)O)C(=O)O)cc1)N2C=O` (stereo partly drawn) [4-[2-(2-Amino-4-hydroxy-5-formyl-5,6,7,8-tetrahydropyrido[3,2-d]pyrimidin-6-yl)ethyl] benzoyl-L-glutamic acid (22a)], with 10100 nM. Then `Nc1nc(N)c2c(n1)CCC(CNc1ccc(C(=O)N[C@@H](CCC(=O)O)C(=O)O)cc1)N2C=O` (stereo partly drawn) [N-[4-[2-(2,4-Diamino-5-formyl-5,6,7,8-tetrahydropyrido[3,2-d]pyrimidin-6-yl)methyl]amino]benzoyl]-L-glutamic acid (24a)], with 590 nM; and `Nc1nc(N)c2c(n1)CCC(CCc1ccc(C(=O)N[C@@H](CCC(=O)O)C(=O)O)cc1)N2CC(Br)CBr` (stereo partly drawn) [4-[2-[2,4-Diamino-5-(2,3-dibromopropyl)-5,6,7,8-tetrahydropyrido[3,2-d]pyrimidin-6-yl]ethyl]benzoyl-L-glutamic acid (21a)], with 680 nM. For `C=CCN1c2c(N)nc(N)nc2CCC1CCc1ccc(C(=O)N[C@@H](CCC(=O)O)C(=O)O)cc1` (stereo partly drawn) [4-[2-(2,4-Diamino-5-allyl-5,6,7,8-tetrahydropyrido[3,2-d]pyrimidin-6-yl)ethyl]benzoyl-L-glutamic acid (20a)], the 50% inhibitory concentration (IC50) is 706 nM.

Usually IC50 stands for the midpoint of a concentration-inhibition curve. A lower IC50 goes with inhibition by little substance.
